Tests used:
German cockroach = experiment: Pesticidal test against German cockroach, treated filter paper with sucrose bait (Test Example 6); format: in vivo; settings: Blattella germanica, 144 h; 500 ppm test liquid (Formulation Example 5), 0.7 ml on filter paper; two male adults; after 6 days
Description: Two male adults of German cockroach (Blattalla germanica) were set free in the polyethylene cup, which was then kept covered. After 6 days, their survival was examined to determine the mortality.

Cullex pipiens pallens = experiment: whole plant or invertebrate; settings: 24 h
Description: In 100 ml of ion-exchanged water, the test liquid had been prepared as described above, was added dropwise in an amount of 0.7 ml (the concentration of active ingredient was 3.5 ppm). Twenty final-instar larvae of Cullex pipiens pallens (common mosquito) were set free in the solution. After 1 days, their survival was examined to determine the mortality.

Musca domestics = experiment: Pesticidal test against Musca domestics, treated filter paper with sucrose bait (Test Example 5); format: in vivo; settings: 500 ppm test liquid (Formulation Example 5), 0.7 ml on filter paper, ten female adults, after 24 hours
Description: Ten female adults of Musca domestics (house fly) were set free in the polyethylene cup, which was then kept covered. After 24 hours, their survival was examined to determine the mortality.

SMILES | mortality at 500 ppm (German cockroach) | mortality at 3.5 µg/mL (Cullex pipiens pallens) | mortality at 500 ppm (Musca domestics)
C=CCC(C#N)(C#N)Cc1cccc(OC(F)(F)F)c1 [Compound 89, 2-allyl-2-(3-(trifluoromethoxy)benzyl)malononitrile] | 100% | 100% | 100%
C=CCCC(C#N)(C#N)Cc1ccc(C(F)(F)F)cc1 [Compound 52, 2-(3-butenyl)-2-(4-(trifluoromethyl)benzyl)malononitrile] | 100% | 100% | 100%
C=CCCC(C#N)(C#N)Cc1ccc(OC(F)(F)F)cc1 [Compound 15, 2-(3-butenyl)-2-(4-(trifluoromethoxy)benzyl)malononitrile] | 100% | 100% | 100%
C=CCC(C#N)(C#N)Cc1ccc(SC(F)(F)F)cc1 [Compound 41, 2-allyl-2-(4-(trifluoromethylthio)benzyl)malononitrile] | 100% | 100% | 100%
CC=CCC(C#N)(C#N)Cc1ccc(SC(F)(F)F)cc1 [Compound 46, 2-(2-butenyl)-2-(4-(trifluoromethylthio)benzyl)malononitrile] | 100% | 100% | 100%
C=CCC(C#N)(C#N)Cc1ccc(C(F)(F)F)cc1C(F)(F)F [Compound 57, 2-allyl-2-(2,4-bis(trifluoromethyl)benzyl)malononitrile] | 100% | 100% | 100%
CC#CCC(C#N)(C#N)Cc1ccc(OC(F)(F)F)cc1 [Compound 59, 2-(2-butynyl)-2-(4-(trifluoromethoxy)benzyl)malononitrile] | 100% | 100% | 100%
C=CCC(C#N)(C#N)Cc1ccc(C(F)(F)F)cc1Cl [Compound 58, 2-allyl-2-(2-chloro-4-(trifluoromethyl)benzyl)malononitrile] | 100% | 100% | 100%
C=CCCC(C#N)(C#N)C(C=C)c1ccc(OC(F)(F)F)cc1 (centres unmarked) [Compound 32, 2-(3-butenyl)-2-(1-(4-(trifluoromethoxy)phenyl)-2-propenyl)malononitrile] | 100% | 100% | 100%
C=CC(C)C(C#N)(C#N)Cc1ccc(SC(F)(F)F)cc1 (centres unmarked) [Compound 47, 2-(1-methyl-2-propenyl)-2-(4-(trifluoromethylthio)benzyl)malononitrile] | 100% | 100% | 100%
C=CCC(C#N)(C#N)Cc1c(Cl)cc(C(F)(F)F)cc1Cl [Compound 64, 2-allyl-2-(2,6-dichloro-4-(trifluoromethyl)benzyl)malononitrile] | 100% | 100% | 100%
C=CCC(C#N)(C#N)C(C#N)c1ccc(OC(F)(F)F)cc1 (stereo not drawn) [Compound 55, 2-allyl-2-(4-(trifluoromethoxy)-α-cyanobenzyl)malononitrile] | 100% | 100% | 100%
C=CCC(C#N)(C#N)C(CCl)c1ccc(OC(F)(F)F)cc1 (centres unmarked) [Compound 31, 2-allyl-2-(1-(4-(trifluoromethoxy)phenyl)-2-chloroethyl)malononitrile] | 100% | 100% | 100%
CC(C)CC(C#N)(C#N)Cc1ccc(C(F)(F)F)cc1 [Compound 110, 2-(2-methylpropyl)-2-(4-(trifluoromethyl)benzyl)malononitrile] | 100% | 100% | 100%
CCCCC(C#N)(C#N)Cc1ccc(C(F)(F)F)cc1 [Compound 109, 2-butyl-2-(4-(trifluoromethyl)benzyl)malononitrile] | 100% | 100% | 100%
C=CCCC(C#N)(C#N)Cc1ccc(C(F)(F)F)cc1Cl [Compound 60, 2-(3-butenyl)-2-(2-chloro-4-(trifluoromethyl)benzyl)malononitrile] | 100% | 100% | 100%
C=CCC(C#N)(C#N)C(C#N)c1ccc(SC(F)(F)F)cc1 (stereo not drawn) [Compound 56, 2-allyl-2-(4-(trifluoromethylthio)-α-cyanobenzyl)malononitrile] | 100% | 100% | 100%
C=CCCC(C#N)(C#N)Cc1ccc(SC(F)(F)F)cc1 [Compound 42, 2-(3-butenyl)-2-(4-(trifluoromethylthio)benzyl)malononitrile] | 100% | 100% | 100%
CC(C#N)(C#N)Cc1ccc(Cl)cc1 [Compound 68, 2-(4-chlorobenzyl)-2-methylmalononitrile] | 100% | 100% | 100%
C=CCC(C#N)(C#N)Cc1ccc(C(F)(F)F)c(F)c1 [Compound 69, 2-allyl-2-(3-fluoro-4-(trifluoromethyl)benzyl)malononitrile] | 100% | 100% | 100%
C=CCCCC(C#N)(C#N)Cc1ccc(C(F)(F)F)cc1 [Compound 79, 2-(4-pentenyl)-2-(4-(trifluoromethyl)benzyl)malononitrile] | 100% | 100% | 100%
C=CCC(C#N)(C#N)C(OC)c1ccc(OC(F)(F)F)cc1 (stereo not drawn) [Compound 39, 2-allyl-2-(4-(trifluoromethoxy)-α-methoxybenzyl)malononitrile] | 100% | 100% | 100%
C=CCC(C#N)(C#N)C(C=C)c1ccc(OC(F)(F)F)cc1 (centres unmarked) [Compound 33, 2-allyl-2-(1-(4-(trifluoromethoxy)phenyl)-2-propenyl)malononitrile] | 100% | 100% | 100%
C=CCC(C#N)(C#N)C(OC)c1ccc(SC(F)(F)F)cc1 (stereo not drawn) [Compound 43, 2-allyl-2-(4-(trifluoromethylthio)-α-methoxybenzyl)malononitrile] | 100% | 100% | 100%
C=CCC(C#N)(C#N)Cc1ccc(C(C)C)cc1 [Compound 102, 2-allyl-2-(4-isopropylbenzyl)malononitrile] | 100% | 100% | 100%
C=CCC(C#N)(C#N)C(C)c1ccc(OC(F)(F)F)cc1 (centres unmarked) [Compound 30, 2-allyl-2-(1-(4-(trifluoromethoxy)phenyl)ethyl)malononitrile] | 100% | 100% | 100%
C=CCCC(C#N)(C#N)Cc1ccc(OC(F)F)cc1 [Compound 36, 2-(3-butenyl)-2-(4-(difluoromethoxy)benzyl)malononitrile] | 100% | 100% | 100%
C=CCC(C#N)(C#N)Cc1c(F)cc(F)cc1F [Compound 120, 2-allyl-2-(2,4,6-trifluorobenzyl)malononitrile] | 100% | – | 100%
